Laboratory results published in US6492137B1, “Response element compositions and assays employing same” (The Salk Institute for Biological Studies, priority 1989, dated 2002).

Experiments:
RAR = experiment: Delta-MTV constructs, RA induction in CV-1 cells with cotransfected RAR expression vector; assay type: cell-based; details: Delta-MTV promoter; with vs without RAR expression vectors
Protocol: Inspection of the sequences of βRE1, βRE2, and βRE3 (see FIG. 2b) identifies a tandem repeat of the 6 bp motif. The center to center separation of 11 bp between these repeats is one turn of the DNA helix. […] Apparently, a single half site element of the RARβ gene would reciprocally be responsive to the TR, ER, and/or other members of the receptor superfamily.
Cells were transfected in 10 cm dishes with 10 μg of DNA containing 5 μg of reporter plasmid, 1-2 μg of either RSV-LUC (a), or RSV-βGAL or pCH110 (c and d), pGEM4 as carrier DNA, and for the experiments shown in a and d, 1 μg of RSV-RAR expression vector or the same amount of an RSV vector generating a nonsense transcript. Cells were harvested 1 day after addition of retinoic acid. All CAT assays represent equivalent amounts of β-galactosidase activity; β-GAL assays were normalized to luciferase activity.

TRβ = target: T1, TRβ (Homo sapiens, UniProt P10828); experiment: Gel retardation DNA-binding assay with TRβ-expressing COS cell extracts; parameters: expressed in transfected cells; host or cells: COS cells (whole-cell extract); details: gel retardation; TRβ COS cell extract
T1 sequence (P10828 1-461): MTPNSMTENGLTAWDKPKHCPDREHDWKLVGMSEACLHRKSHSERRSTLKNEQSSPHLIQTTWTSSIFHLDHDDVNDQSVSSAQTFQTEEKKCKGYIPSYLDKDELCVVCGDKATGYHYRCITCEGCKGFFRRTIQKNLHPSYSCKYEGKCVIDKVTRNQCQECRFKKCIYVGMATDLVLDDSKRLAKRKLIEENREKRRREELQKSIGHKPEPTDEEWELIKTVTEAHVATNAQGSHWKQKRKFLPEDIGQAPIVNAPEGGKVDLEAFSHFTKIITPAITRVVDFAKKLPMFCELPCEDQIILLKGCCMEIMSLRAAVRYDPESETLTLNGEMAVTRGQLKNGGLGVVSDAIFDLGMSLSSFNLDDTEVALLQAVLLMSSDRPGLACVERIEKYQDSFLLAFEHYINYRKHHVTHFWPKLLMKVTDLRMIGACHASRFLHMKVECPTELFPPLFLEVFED
Protocol: For DNA binding assays, COS cells were cultured in DMEM with 10% calf bovine serum and transfected by the calcium phosphate method with 20 μg of the pCMX receptor expression plasmid for 6 hours followed by a glycerol shock. After incubating the transfected COS cells for another 48 hours, the cells were harvested to prepare extracts for the DNA binding assay, carried out as described by Damm et al., Nature 339: 593-597 (1989). The extracts were made in 20 mM HEPES (pH 7.4), 0.4 M KCl, 2 mM DTT and 20% glycerol. A similar method was employed to prepare a whole cell extract from F9 stem cells. For the binding, 5 μg (COS) or 10 μg (F9) of proteins was incubated on ice for 20 minutes, first in 20 mM HEPES, 80 mM KCl, 1 mM DTT, 0.1% NP40, 2.5 μg of poly dI/dC, and 10% glycerol (cold competitor oligonucleotides, when included, were added during this pre-incubation period). Then 40 fmole of ^32P-labeled oligonucleotide probe (1-2×10^5 cpm, prepared by filling-in reaction using Klenow polymerase in the presence of α-^32P-dCTP) was added to the reaction mixture, followed by incubation at room temperature for 30 minutes. The receptor-DNA complexes were resolved by electrophoresis through 5% polyacrylamide gel containing 5% glycerol at 6 V/cm at room temperature.
Oligonucleotides listed in FIG. 3 were used as a probe to test specific DNA-binding of the RARα and TRβ in a gel retardation assay.
Using the mobility shift assay, the DNA-binding capacity of extracts from COS cells expressing TRβ and RARα to these sequences was also tested.

RARα = target: T2, RARα (Homo sapiens, UniProt P10276); experiment: ΔSV-CAT reporter cotransfection assay in CV-1 cells with RARα expression plasmid, ±RA; assay type: cell-based; parameters: expressed in transfected cells; host or cells: CV-1 (monkey kidney); details: RA 1 μM
T2 sequence (P10276 1-462): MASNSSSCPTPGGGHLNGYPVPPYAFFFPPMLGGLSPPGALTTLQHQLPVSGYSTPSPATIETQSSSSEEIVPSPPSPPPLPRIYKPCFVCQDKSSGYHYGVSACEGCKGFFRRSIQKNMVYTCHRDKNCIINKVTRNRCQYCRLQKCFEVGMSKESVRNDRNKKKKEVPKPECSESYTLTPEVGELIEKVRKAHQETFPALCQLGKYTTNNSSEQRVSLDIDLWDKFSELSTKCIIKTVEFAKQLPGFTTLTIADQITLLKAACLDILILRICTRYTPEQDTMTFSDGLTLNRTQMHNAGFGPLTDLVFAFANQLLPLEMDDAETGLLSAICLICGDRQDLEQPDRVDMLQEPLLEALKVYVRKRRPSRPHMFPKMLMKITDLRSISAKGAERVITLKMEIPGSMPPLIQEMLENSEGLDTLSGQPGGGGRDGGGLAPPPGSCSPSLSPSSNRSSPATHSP
Description: Receptor expression plasmids used in the following cotransfection assays have been described previously (pRShTRβ [see Thompson, et al., Proc. Natl. Acad. Sci. U.S.A. 86: 3494-3498 (1989)]; pRShRARα [see Giguere, et al., Nature 330: 624-629 (1987)]; pRShRARβ and pRshRARγ [see Ishikawa, et al., Mol. Endocrinol, 4: 837-844 (1990)]; and pRShVDR, [Schule, et al., Cell 61: 497-504 (1990)]. A basal reporter plasmid ΔSV-CAT was constructed by replacing the TK promoter in TK-CAT [Damm, et al., Nature 339: 593-597 (1989)] with the SphI-HindIII fragment of the SV40 early promoter. All of the recombinant CAT reporter plasmids used herein harbor a single copy of the indicated oligonucleotides at the unique HindIII site upstream of the SV40 promoter. Identity of the inserted oligonucleotides was confirmed by sequencing. To improve production of receptor proteins in COS cells, a new eukaryotic expression vector pCMX was prepared by modifying the plasmid CDM8 [Seed, B., Nature 329: 840-842 (1987)]. The CDM8 was cut with MluI and StuI in order to release the DNA fragment encoding the CMV/T7 promoter, SV40 small t intron/poly A signal, polyoma virus enhancer/origin, and SV40 enhancer/origin. The resulting fragment was ligated to a larger fragment of PvuII-digested PUC19. An internal deletion was introduced between unique BamHI and BclI sites present in the DCM8 portion. The stuffer sequence flanked by XbaI sites was replaced with a synthetic polylinker coding for 5′-KpnI/Asp718-EcoRV-BamHI -MscI-NheI-3′, followed by a stretch of 5′-[…]-3′ (SEQ ID NO:48) which can function as a universal termination signal for protein translation. The coding sequence of the luciferase [de Wet, et al., Mol. Cell. Biol. 7: 725-737 (1987)] and human TRβ, RARα, and VDR was placed in the polylinker region of the pCMX, generating pCMX-LUC, Pcmx-Htrβ, pCMX-hRARα, and pCMX-hVDR, respectively. The translation start site of the RARα was modified to […] by attaching the synthetic linker encoding a consensus translation start signal [Hollenberg, et al., Cell 55: 899-906 (1988)]. […]

[1] = target: T3, Thyroid hormone receptor beta (TRβ), in CV-1 cells (Homo sapiens, UniProt P10828 P10828:1-461); experiment: cell_activity; T3 100 nM, CV-1; details: tags: pRShTRβ; label: 32P; 5'-agct overhangs
T3 sequence: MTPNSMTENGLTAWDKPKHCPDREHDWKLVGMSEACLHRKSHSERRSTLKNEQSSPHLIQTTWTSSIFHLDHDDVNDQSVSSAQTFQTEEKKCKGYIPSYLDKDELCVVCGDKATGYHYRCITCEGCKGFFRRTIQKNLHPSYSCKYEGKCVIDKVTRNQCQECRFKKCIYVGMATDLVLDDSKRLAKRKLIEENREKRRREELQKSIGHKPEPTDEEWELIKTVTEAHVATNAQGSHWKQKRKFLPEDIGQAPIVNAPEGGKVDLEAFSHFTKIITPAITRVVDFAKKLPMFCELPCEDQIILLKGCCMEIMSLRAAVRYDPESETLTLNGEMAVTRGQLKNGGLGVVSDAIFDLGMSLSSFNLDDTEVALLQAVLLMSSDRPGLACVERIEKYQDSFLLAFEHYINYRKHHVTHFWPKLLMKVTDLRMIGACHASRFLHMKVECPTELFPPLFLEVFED
Protocol: (§1) For cotransfection assays, a monkey kidney cell line CV-1 was kept in Dulbecco's modified Eagle's medium (DMEM) supplemented with 10% charcoal-resin double split calf bovine serum. Transfections were performed via calcium-phosphate precipitation method as described by Umesono, et al. in Cell 57: 1139–1146 (1989), with 0.5 μg of a pRS receptor expression plasmid, 1.0 μg of a reporter CAT plasmid, 5 μg of pRAS-βGAL [Umesono, et al., Cell 57: 1139–1146 (1989)] as an internal control, and 8.5 μg of carrier plasmid pUC19. The cells were transfected for 8 hours; after washing the DNA precipitates, the cells were then incubated for an additional 36 hours with or without the ligand (T_3, 100 nM; RA, 1 μM; 1,25-(OH)_2 vitamin D_3, 100 nM). Cell extracts were prepared for βGAL and CAT assays, as described by Umesono, et al., supra. Transfection of F9 teratocarcinoma cells was carried out employing a similar method except the cells were incubated for 12 hours in the presence of the DNA precipitates, and the RA was added at 1 μM for another 24 hours before harvesting the cells. 2, 5, and 4 μg of the reporter, pRAS-βGAL, and pUC19 were used, respectively.
(§2) The above strategies were used to test both in vivo transactivation and in vitro DNA-binding of these artificial HREs for TRβ, RARα, and VDR. […]

[2] = target: T4, Vitamin D receptor (VDR), in CV-1 cells (Homo sapiens, UniProt P11473 P11473:1-427); experiment: cell_activity; vitamin D3 100 nM, CV-1; details: tags: pRShVDR; label: 32P; 5'-agct overhangs
T4 sequence: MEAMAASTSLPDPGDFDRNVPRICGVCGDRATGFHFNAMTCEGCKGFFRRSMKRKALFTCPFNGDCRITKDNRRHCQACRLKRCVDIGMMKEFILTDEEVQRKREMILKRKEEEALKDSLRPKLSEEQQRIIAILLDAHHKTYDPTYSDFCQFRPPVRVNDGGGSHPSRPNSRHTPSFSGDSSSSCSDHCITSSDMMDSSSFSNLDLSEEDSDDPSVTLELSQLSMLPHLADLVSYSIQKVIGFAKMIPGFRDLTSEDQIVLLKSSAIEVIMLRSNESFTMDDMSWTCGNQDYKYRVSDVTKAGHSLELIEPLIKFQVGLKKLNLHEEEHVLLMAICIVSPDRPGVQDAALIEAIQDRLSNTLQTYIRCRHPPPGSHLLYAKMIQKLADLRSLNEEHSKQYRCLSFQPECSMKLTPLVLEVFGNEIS
Protocol: as §1, §2

βRE5: construct containing a single copy of either the 5′- or 3′- half site (SEQ ID NO:9) (AAGCTTAAGGGTTCACCGAGCTT; listed as DNA, chemistry not given here)
function of single half-site constructs (RAR): functional only upon cotransfection of RAR expression vectors

βRE4: construct containing a single copy of either the 5′- or 3′- half site (SEQ ID NO:8) (AAGCTTCGAAAGTTCACTCGCATAGCTT; listed as DNA, chemistry not given here)
function of single half-site constructs (RAR): functional only upon cotransfection of RAR expression vectors

DR-4: perfect tandem repeat of AGGTCA hexamers separated by 4 nucleotides (SEQ ID NO:27) (AGCTTCAGGTCACAGGAGGTCAGAGAGCT; DNA, backbone not given here; double-stranded DNA response element with agct overhangs, cloned into reporter)
TRβ binding to labeled oligonucleotide probe (TRβ): specific protein-DNA complex | RA response (in words) (RARα): clear activity

B1: DR-4 (dsDNA)
DNA 1: AGCTTCAGGTCACAGGAGGTCAGAGAGCT
DNA 2: AGCTCTCTGACCTCCTGTGACCTGAAGCT
activity [1]: 22 fold induction

B2: DR-3 (dsDNA)
DNA 1: AGCTTCAGGTCAAGGAGGTCAGAGAGCT
DNA 2: AGCTCTCTGACCTCCTTGACCTGAAGCT
activity [2]: 8.3 fold induction
